Values of other authors in patent publication US10959985B1, “Pharmaceutical compositions including carvedilol and methods of using the same” (ECI Pharmaceuticals, LLC, priority 2019, dated 2021).
Where two headings read alike, the source gives them in different places.

Experiments:
[1] = test system: mice
[2] = test system: rats
[3] = test system: humans

For `COc1ccccc1OCCNCC(O)COc1cccc2[nH]c3ccccc3c12` (racemic) [Carvedilol, (±) 1-(9H-carbazol-4-yloxy)-3-[[2(2-methoxyphenoxy)ethyl]amino]-2-propanol], the “intraperitoneal LD50” value ([1]; intraperitoneal) is listed as 364 mg/kg, the “oral LDLO” value ([1]; oral) is listed as 8 gm/kg and the “intraperitoneal LD50” value ([2]; intraperitoneal) is listed as 769 mg/kg. The “oral LDLO” value ([2]; oral) was 8 gm/kg, the solubility in water was “practically insoluble” and the “oral TDLO” value ([3]; men) was 5.357 mg/kg. The “oral TDLO” value ([3]; women) was 12 mg/kg.
